In patent publication US10112899B2 (ViiV HEALTHCARE UK LIMITED, priority 2014, dated 2018) one finds IC50 data, which are given here for 28 compounds.

In general, IC50 refers to the point on the concentration scale where inhibition reaches its midpoint.

For this assay, the system named is HIV in the HTLV-1 transformed cell line MT-4. As to the kind of experiment: organism not typed. The class given is cell-based. As to conditions: MT-4 cells, luciferase/cell titer glo readout after 96 hours, 10 point dose response.

As for `Cc1ccc(-c2c(C)c3c(c(C)c2[C@H](OC(C)(C)C)C(=O)O)CN(C(=O)N2CC[C@@H](F)C2)C3)cc1` [Example 96, (S)-2-(tert-butoxy)-2-(2-((R)-3-fluoropyrrolidine-1-carbonyl)-4,7-dimethyl-6-(p-tolyl)isoindolin-5-yl)acetic acid], the IC50 (MT4, 96 h) is 14 nM. This counts as double-digit nanomolar.
For `Cc1c(-c2c(C)c3c(c(C)c2[C@H](OC(C)(C)C)C(=O)O)CN(Cc2cccc4c2OCO4)C3)cc(F)c2c1CCCO2` (atropisomer, axis not shown; (M)) [Example 216, (S)-2-((M)-2-(benzo[d][1,3]dioxol-4-ylmethyl)-6-(8-fluoro-5-methylchroman-6-yl)-4,7-dimethylisoindolin-5-yl)-2-(tert-butoxy)acetic acid], half-maximal inhibition (MT4, 96 h) (IC50) required 4 nM.
Under “MT4, 96 h”, `Cc1ccc(-c2c(C)c3c(c(C)c2[C@H](OC(C)(C)C)C(=O)O)CN(C(=O)CC2CCCCC2)C3)cc1` [Example 117, (S)-2-(tert-butoxy)-2-(2-(2-cyclohexylacetyl)-4,7-dimethyl-6-(p-tolyl)isoindolin-5-yl)acetic acid] yielded a 50% inhibitory concentration (IC50) of 17 nM.
Turning to `Cc1c(-c2c(C)c3c(c(C)c2[C@H](OC(C)(C)C)C(=O)O)CN(C(=O)c2ccc(F)cc2)C3)cc(F)c2c1CCCO2` (atropisomer, axis not shown; (M)) [Example 174, (S)-2-(tert-butoxy)-2-((M)-6-(8-fluoro-5-methylchroman-6-yl)-2-(4-fluorobenzoyl)-4,7-dimethylisoindolin-5-yl)acetic acid], for the setting “MT4, 96 h”, 4 nM corresponded to half-maximal inhibition (IC50). Against the preceding compound, the IC50 is about 4.2-fold lower.
As for `Cc1ccc(-c2c(C)c3c(c(C)c2[C@H](OC(C)(C)C)C(=O)O)CN(C(=O)c2cccc(F)c2F)C3)cc1` [Example 120, (S)-2-(tert-butoxy)-2-(2-(2,3-difluorobenzoyl)-4,7-dimethyl-6-(p-tolyl)isoindolin-5-yl)acetic acid], the IC50 (MT4, 96 h) stood at 3 nM.
`Cc1ccc(-c2c(C)c3c(c(C)c2[C@H](OC(C)(C)C)C(=O)O)CN(C(=O)N2CCC(N4CCOCC4)CC2)C3)cc1` [Example 98, (S)-2-(tert-butoxy)-2-(4,7-dimethyl-2-(4-morpholinopiperidine-1-carbonyl)-6-(p-tolyl)isoindolin-5-yl)acetic acid] had a concentration for half-maximal inhibition (IC50) (MT4, 96 h) of 2300 nM.
For `Cc1ccc(-c2c(C)c3c(c(C)c2[C@H](OC(C)(C)C)C(=O)O)CN(C(=O)c2ccc(C)nc2)C3)cc1` [Example 283, (S)-2-(tert-butoxy)-2-(4,7-dimethyl-2-(6-methylnicotinoyl)-6-(p-tolyl)isoindolin-5-yl)acetic acid], under “MT4, 96 h”, inhibition was half-maximal at 13 nM (IC50).
Under “MT4, 96 h”, `Cc1ccc(-c2c(C)c3c(c(C)c2[C@H](OC(C)(C)C)C(=O)O)CN(S(=O)(=O)N2CCOCC2)C3)cc1` [Example 52, (2S)-2-(tert-butoxy)-2-[4,7-dimethyl-6-(4-methylphenyl)-2-(morpholine-4-sulfonyl)-2,3-dihydro-1H-isoindol-5-yl]acetic acid] came in with an IC50 of 18 nM.
`Cc1cccc(F)c1C(=O)N1Cc2c(C)c(-c3cc(F)c4c(c3C)CCCO4)c([C@H](OC(C)(C)C)C(=O)O)c(C)c2C1` (atropisomer, axis not shown; (M)) [Example 197, (S)-2-(tert-butoxy)-2-((M)-6-(8-fluoro-5-methylchroman-6-yl)-2-(2-fluoro-6-methylbenzoyl)-4,7-dimethylisoindolin-5-yl)acetic acid]: the midpoint of inhibition (MT4, 96 h), the IC50, lay at 4 nM.
`Cc1c(-c2c(C)c3c(c(C)c2[C@H](OC(C)(C)C)C(=O)O)CN(C(=O)c2cccc(F)c2)C3)ccc2c1NCCO2` [Example 303, (2S)-2-(tert-butoxy)-2-(2-(3-fluorobenzoyl)-4,7-dimethyl-6-(5-methyl-3,4-dihydro-2H-benzo[b][1,4]oxazin-6-yl)isoindolin-5-yl)acetic acid] showed a half-maximal inhibitory concentration (IC50) of 5 nM.
`Cc1ccc(-c2c(C)c3c(c(C)c2[C@H](OC(C)(C)C)C(=O)O)CN(C(=O)N(C)CC2CCCCC2)C3)cc1` [Example 78, (2S)-2-(tert-butoxy)-2-{2-[(cyclohexylmethyl)(methyl)carbamoyl]-4,7-dimethyl-6-(4-methylphenyl)-2,3-dihydro-1H-isoindol-5-yl}acetic acid]: for the setting “MT4, 96 h”, inhibition was half-maximal at 126 nM (IC50).
`Cc1ccc(-c2c(C)c3c(c(C)c2[C@H](OC(C)(C)C)C(=O)O)CN(C(=O)N2CCCCC2)C3)c(Cl)c1` [Example 322, (2S)-2-(tert-butoxy)-2-(6-(2-chloro-4-methylphenyl)-4,7-dimethyl-2-(piperidine-1-carbonyl)isoindolin-5-yl)acetic acid] gave an IC50 of 5 nM.
Take `COC1CCC(C(=O)N2Cc3c(C)c(-c4ccc(C)cc4)c([C@H](OC(C)(C)C)C(=O)O)c(C)c3C2)CC1` (stereo partly drawn) [Example 116, (S)-2-(tert-butoxy)-2-(2-(4-methoxycyclohexanecarbonyl)-4,7-dimethyl-6-(p-tolyl)isoindolin-5-yl)acetic acid]: half-maximal inhibition (MT4, 96 h) (IC50) was put at 31 nM.
On to `Cc1ccc(-c2c(C)c3c(c(C)c2[C@H](OC(C)(C)C)C(=O)O)CN(C(=O)c2cc(F)ccc2F)C3)cc1` [Example 262, (S)-2-(tert-butoxy)-2-(2-(2,5-difluorobenzoyl)-4,7-dimethyl-6-(p-tolyl)isoindolin-5-yl)acetic acid], for which, for the setting “MT4, 96 h”, the IC50 amounted to 5 nM.
The same measure, in the same setting: next, `Cc1ccc(-c2c(C)c3c(c(C)c2[C@H](OC(C)(C)C)C(=O)O)CN(C(=O)c2cnc(-c4ccccc4)o2)C3)cc1` [Example 274, (S)-2-(tert-butoxy)-2-(4,7-dimethyl-2-(2-phenyloxazole-5-carbonyl)-6-(p-tolyl)isoindolin-5-yl)acetic acid]: 297 nM; `Cc1ccc(-c2c(C)c3c(c(C)c2[C@H](OC(C)(C)C)C(=O)O)CN(C(=O)c2cnccc2C)C3)cc1` [Example 260, (S)-2-(tert-butoxy)-2-(4,7-dimethyl-2-(4-methylnicotinoyl)-6-(p-tolyl)isoindolin-5-yl)acetic acid]: 15 nM.
Where the note is “MT4, 96 h”, `Cc1ccc(-c2c(C)c3c(c(C)c2[C@H](OC(C)(C)C)C(=O)O)CN(S(=O)(=O)NC(C)C)C3)cc1` [Example 51, (2S)-2-(tert-butoxy)-2-[4,7-dimethyl-6-(4-methylphenyl)-2-[(propan-2-yl)sulfamoyl]-2,3-dihydro-1H-isoindol-5-yl]acetic acid] showed an IC50 of 44 nM.
Same read-out and setting: for `Cc1ccc(-c2c(C)c3c(c(C)c2[C@H](OC(C)(C)C)C(=O)O)CN(C(=O)N2CCC2)C3)cc1` [Example 61, (2S)-2-[2-(azetidine-1-carbonyl)-4,7-dimethyl-6-(4-methylphenyl)-2,3-dihydro-1H-isoindol-5-yl]-2-(tert-butoxy)acetic acid] the value was 38 nM.
As to `Cc1ccc(-c2c(C)c3c(c(C)c2[C@H](OC(C)(C)C)C(=O)O)CN(C(=O)C(C)(C)C)C3)cc1` [Example 109, (S)-2-(tert-butoxy)-2-(4,7-dimethyl-2-pivaloyl-6-(p-tolyl)isoindolin-5-yl)acetic acid], the half-inhibitory concentration (IC50) (MT4, 96 h) stood at 36 nM.
`Cc1ccc(-c2c(C)c3c(c(C)c2[C@H](OC(C)(C)C)C(=O)O)CN(C(=O)NCc2ncccn2)C3)cc1` [Example 290, (S)-2-(tert-butoxy)-2-(4,7-dimethyl-2-((pyrimidin-2-ylmethyl)carbamoyl)-6-(p-tolyl)isoindolin-5-yl)acetic acid] showed a half-inhibitory concentration (IC50) (MT4, 96 h) of 2560 nM.
Consider `Cc1ccc(-c2c(C)c3c(c(C)c2[C@H](OC(C)(C)C)C(=O)O)CN(C(=O)N2CCC(F)(F)C2)C3)c(Cl)c1` [Example 314, (2S)-2-(tert-butoxy)-2-(6-(2-chloro-4-methylphenyl)-2-(3,3-difluoropyrrolidine-1-carbonyl)-4,7-dimethylisoindolin-5-yl)acetic acid], for which the IC50 (MT4, 96 h) came out at 4 nM. Compared with the last compound, the IC50 is about 640-fold lower.
For the compound `Cc1c(-c2c(C)c3c(c(C)c2[C@H](OC(C)(C)C)C(=O)O)CN(c2nc4cc(F)ccc4o2)C3)cc(F)c2c1CCCO2` (atropisomer, axis not shown; (M)) [Example 204, (S)-2-(tert-butoxy)-2-((M)-6-(8-fluoro-5-methylchroman-6-yl)-2-(5-fluorobenzo[d]oxazol-2-yl)-4,7-dimethylisoindolin-5-yl)acetic acid], for the setting “MT4, 96 h”, the 50% inhibitory concentration (IC50) came out at 665 nM.
Regarding `Cc1ccc(-c2c(C)c3c(c(C)c2[C@H](OC(C)(C)C)C(=O)O)CN(C(=O)N2CC4CCCC4C2)C3)cc1` (stereo partly drawn) [Example 82, (2S)-2-(tert-butoxy)-2-(4,7-dimethyl-2-(octahydrocyclopenta[c]pyrrole-2-carbonyl)-6-(p-tolyl)isoindolin-5-yl)acetic acid], the half-inhibitory concentration (IC50) (MT4, 96 h) amounted to 14 nM.
Regarding `Cc1ccc(-c2c(C)c3c(c(C)c2[C@H](OC(C)(C)C)C(=O)O)CN(C(=O)N2CCCCC2)C3)c(Cl)c1` [Example 316, (2S)-2-(tert-butoxy)-2-(6-(2-chloro-4-methylphenyl)-4,7-dimethyl-2-(piperidine-1-carbonyl)isoindolin-5-yl)acetic acid], inhibition was half-maximal at 41 nM (IC50). This lies in the double-digit nanomolar range.
As to `Cc1ccc(-c2c(C)c3c(c(C)c2[C@H](OC(C)(C)C)C(=O)O)CN(C(=O)c2cc(F)cc(F)c2)C3)cc1` [Example 119, (S)-2-(tert-butoxy)-2-(2-(3,5-difluorobenzoyl)-4,7-dimethyl-6-(p-tolyl)isoindolin-5-yl)acetic acid], the IC50 (MT4, 96 h) turned out to be 3 nM.
Same read-out and setting: next, `Cc1ccc(-c2c(C)c3c(c(C)c2[C@H](OC(C)(C)C)C(=O)O)CN(C(=O)c2cccc4c2OCO4)C3)c(Cl)c1` [Example 309, (2S)-2-(2-(benzo[d][1,3]dioxole-4-carbonyl)-6-(2-chloro-4-methylphenyl)-4,7-dimethylisoindolin-5-yl)-2-(tert-butoxy)acetic acid]: 4 nM.
In the case of `Cc1c(-c2c(C)c3c(c(C)c2[C@H](OC(C)(C)C)C(=O)O)CN(c2nc4ccccc4o2)C3)cc(F)c2c1CCCO2` (atropisomer, axis not shown; (M)) [Example 202, (S)-2-((M)-2-(benzo[d]oxazol-2-yl)-6-(8-fluoro-5-methylchroman-6-yl)-4,7-dimethylisoindolin-5-yl)-2-(tert-butoxy)acetic acid], the IC50 (MT4, 96 h) amounted to 124 nM.
Turning to `Cc1ccc(-c2c(C)c3c(c(C)c2[C@H](OC(C)(C)C)C(=O)O)CN(C(=O)c2cccc4c2ccn4C)C3)cc1` [Example 165, (S)-2-(tert-butoxy)-2-(4,7-dimethyl-2-(1-methyl-1H-indole-4-carbonyl)-6-(p-tolyl)isoindolin-5-yl)acetic acid], the IC50 (MT4, 96 h) was 108 nM.
